# What was measured:
# Assay type in all cases: cell-based
# [1] = system: β-arrestin 1–AP2 interaction induced by APJ; assay: BRET interaction of β-arrestin 1 and β2-adaptin (AP2) induced by APJ; conditions: for log (τ/KA) / Δlog (τ/KA): APJ-β-arrestin1-AP2; for log (τ/KA): Black–Leff operational model; for Δlog (τ/KA): relative to Apelin-13; for Bias factor / Log (Bias): APJ-β-arrestin1-AP2 over Ca2+, reference Apelin-13; for Log (Bias): footnote a = statistically insignificant
# Procedure: (§1) To detect the potencies of different peptide ligands for APJ in living cells, real-time kinetic bioluminescence resonance energy transfer (BRET) assays were carried out as follows. HEK293 cells were grown to 80–90% confluence in 24-well plates and transiently transfected with various Rluc-, EYFP-, or Venus-tagged constructs ([Chen et al., 2014]; [Liu et al., 2016]). Approximately 36 h after transfection, the long-acting luciferase substrate EnduRen (E6481, Promega, Beijing Biotech Co., Ltd.) was added to each well at a final concentration of 60 μM and cells were incubated for 2 h at 37°C in a 5% CO2 incubator. BRET experiments were carried out using a Mithras LB941 plate reader (Berthold Technologies, Bad Wildbad, Germany) with three filters: a Rluc filter (400–475 nm), a Venus filter (515–575 nm) and an EGFP filter (500–550 nm) ([Liu et al., 2016]; [Ji et al., 2017]). The BRET ratio was calculated as the ratio of the emission at 535 ± 30 nm to that at 485 ± 20 nm. The results are expressed as the mBRET (mBRET = 1,000 × BRET ratio) ([Pfleger et al., 2006a]; [Pfleger et al., 2006b]). We use high glucose as a negative control group.
# (§2) HEK293 cells were transiently co-transfected with the designated Rluc and GFP2 or Venus or EYFP-labeled constructs. Twenty-four hours after transfection, the cells were harvested in phenol red free medium containing 5% FCS in HEPES buffer and seeded in 96 well white microplate coated with poly-D-lysine. After 24 h, cells were washed twice in PBS and re-suspended in PBS containing 0.5 mM MgCl2 and 0.1% glucose. Coelenterazine h substrate was added at a final concentration of 5 μM in the total volume of 50 μL/well. Kinetic-response and dose-response curve of the recruitment of GRKs or β-arrestin 1 and β-arrestin 2 or AP2 to the APJ by six peptides measured by BRET. […] The BRET signals between receptor and GRKs/β-arrestin1 and 2/AP2 were recorded at 10 min (GRK2/5) or 15 min (β-arrestin1 and) or 30 min (AP2) after agonist stimulation. We use high glucose as a control group. BRET assays were performed as described previously ([Xue et al., 2018]). […] This signal is defined as the ligand induced BRET ratio.
# (§3) The concentration-response data for the ligands in various assays were analyzed to determine the biases of the ligands for G protein dependent signaling or β-arrestin dependent signaling, according to a previously published method ([Kenakin et al., 2012]; [Hager et al., 2016]; [Hothersall et al., 2017]). Briefly, the concentration-response data for each ligand were fitted to the Black–Leff operation model to obtain the values of τ and K A, using the following equation: Response=[A]^nτ^nEm/[A]^nτ^n+([A]KA)^n where [A] is the concentration of the agonist, E m is the maximal response of the system, n is the transducer slope, and K A and τ describe the affinity and efficacy of the agonist, respectively. In the data fitting, the reparametrized form of the equation proposed by [Kenakin et al. (2012)] was used: Response=Em/1+exp{nln[1+exp(β1)/[A]]−nβ2} where β 1 and β 2 are the natural logarithm of K A and τ, respectively, and E m was set to 1. Thus, for each concentration-response curve, a non-linear regression was performed to fit the above equation to give β 1 and β 2 (as well as n). Log (τ/K A) values (“transduction coefficients”) for each ligand vs. each pathway were obtained. […] The ΔΔlog (τ/K A), or Log (Bias), which is the logarithm of the bias factor for a given pathway over a reference pathway (here, intracellular calcium release), was calculated for each ligand as Δlog (τ/K A)–Δlog (τ/K A)Calcium. The 95% confidence interval (CI) was expressed as the mean ± standard error; Log (Bias) values, whose 95% CI crosses 0, were considered statistically insignificant.
# (§4) The data were analyzed using GraphPad Prism v5.0. All the data are presented as the mean ± SEM.
# [2] = system: APJ–β-arrestin 2 interaction; assay: BRET recruitment of β-arrestin 2 to APJ; conditions: for log (τ/KA): Black–Leff operational model; for Bias factor / Log (Bias): APJ-β-arrestin 2 over Ca2+, reference Apelin-13; for Log (Bias): footnote a = statistically insignificant
# Procedure: as §1, §2, §3, §4
# APJ–GRK2 interaction = assay: BRET recruitment of GRK2 to APJ; conditions: for log (τ/KA) / Δlog (τ/KA): APJ-GRK2; for log (τ/KA): Black–Leff operational model; for Δlog (τ/KA): relative to Apelin-13; for Bias factor / Log (Bias): APJ-GRK2 over Ca2+, reference Apelin-13; for Log (Bias): footnote a = statistically insignificant
# Procedure: as §1, §2, §3, §4
# [3] = system: APJ–β-arrestin 1 interaction; assay: BRET recruitment of β-arrestin 1 to APJ; conditions: for log (τ/KA) / Δlog (τ/KA): APJ-β-arrestin1; for log (τ/KA): Black–Leff operational model; for Δlog (τ/KA): relative to Apelin-13; for Bias factor / Log (Bias): APJ-β-arrestin1 over Ca2+, reference Apelin-13
# Procedure: as §1, §2, §3, §4
# APJ–GRK5 interaction = assay: BRET recruitment of GRK5 to APJ; conditions: for log (τ/KA) / Δlog (τ/KA): GRK5; for log (τ/KA): Black–Leff operational model; for Δlog (τ/KA): relative to Apelin-13; for Bias factor / Log (Bias): GRK5 over Ca2+, reference Apelin-13; for Log (Bias): footnote a = statistically insignificant
# Procedure: as §1, §2, §3, §4
smiles,measurement,setting,value
CSCC[C@H](NC(=O)[C@@H](NC(=O)[C@H](CC(C)C)NC(=O)[C@H](CC(N)=O)NC(=O)[C@@H](NC(=O)[C@@H]1CCCN1C(=O)[C@H](CCCNC(=N)N)NC(=O)[C@@H](N)CCC(N)=O)C(C)C)[C@@H](C)O)C(=O)N[C@@H](CCCNC(=N)N)C(=O)N[C@@H](CCCNC(=N)N)C(=O)N[C@@H](CCCCN)C(=O)N[C@@H](CC(C)C)C(=O)N[C@@H](CCCNC(=N)N)C(=O)N[C@@H](CCCCN)C(=O)N[C@@H](Cc1c[nH]cn1)C(=O)N[C@@H](CC(N)=O)C(=O)N[C@H]1CSSC[C@@H](C(=O)N[C@@H](CCSC)C(=O)N2CCC[C@H]2C(=O)N[C@@H](CC(C)C)C(=O)N[C@@H](Cc2c[nH]cn2)C(=O)N[C@@H](CO)C(=O)N[C@@H](CCCNC(=N)N)C(=O)N[C@H](C(=O)N2CCC[C@H]2C(=O)N[C@@H](Cc2ccccc2)C(=O)N2CCC[C@H]2C(=O)O)C(C)C)NC(=O)[C@H](CCCNC(=N)N)NC(=O)[C@H](CCCNC(=N)N)NC(=O)[C@H](CCC(N)=O)NC(=O)[C@H](CC(C)C)NC1=O [Elabela-32],log (τ/KA),[1],−0.1 ± 0.1
same,Δlog (τ/KA),[1],1.3 ± 0.2
same,Bias factor,[1],"1,580.1"
same,Log (Bias),[1],3.2
same,Log (Bias),[1]; listed as ELA-32,3.2 ± 0.3
same,bias over calcium release,[1]; β-arrestin 1–AP2,"> 1,500 fold"
same,log (τ/KA),[2]; APJ-β-arrestin 2,−0.4 ± 0.1
same,Bias factor,[2],"6,138.2"
same,Log (Bias),[2],3.8
same,Log (Bias),[2]; listed as ELA-32,3.8 ± 0.2
same,bias over calcium release,[2]; APJ–β-arrestin 2,"> 6,000 fold"
same,log (τ/KA),APJ–GRK2 interaction,−0.8 ± 0.2
same,Δlog (τ/KA),APJ–GRK2 interaction,1.3 ± 0.3
same,Bias factor,APJ–GRK2 interaction,"1,604.0"
same,Log (Bias),APJ–GRK2 interaction,3.2
same,Log (Bias),APJ–GRK2 interaction; listed as ELA-32,3.2 ± 0.4
same,bias over calcium release,APJ–GRK2 interaction; APJ–GRK2,"> 1,500 fold"
same,log (τ/KA),[3],−1.0 ± 0.1
same,Δlog (τ/KA),[3],1.4 ± 0.1
same,Bias factor,[3],1978.4
same,Log (Bias),[3],3.3
same,Log (Bias),[3]; listed as ELA-32,3.3 ± 0.2
same,bias over calcium release,[3]; APJ–β-arrestin 1,"> 1,500 fold"
same,APJ–β-arrestin 1 BRET signal (in words),"[3]; dose-response, 15 min",significantly higher than those induced by the other peptide ligands
same,bias over calcium release,APJ–GRK5 interaction; APJ–GRK5,"> 6,000 fold"
same,log (τ/KA),APJ–GRK5 interaction,−0.3 ± 0.3
same,Δlog (τ/KA),APJ–GRK5 interaction,2.1 ± 0.4
same,Bias factor,APJ–GRK5 interaction,"8,921.8"
same,Log (Bias),APJ–GRK5 interaction,4.0
same,Log (Bias),APJ–GRK5 interaction; listed as ELA-32,4.0 ± 0.5
CSCC[C@H](NC(=O)[C@@H]1CSSC[C@H](NC(=O)[C@H](CC(N)=O)NC(=O)[C@H](Cc2c[nH]cn2)NC(=O)[C@H](CCCCN)NC(=O)[C@H](CCCNC(=N)N)NC(=O)[C@@H](N)CC(C)C)C(=O)N[C@@H](CC(C)C)C(=O)N[C@@H](CCC(N)=O)C(=O)N[C@@H](CCCNC(=N)N)C(=O)N[C@@H](CCCNC(=N)N)C(=O)N1)C(=O)N1CCC[C@H]1C(=O)N[C@@H](CC(C)C)C(=O)N[C@@H](Cc1c[nH]cn1)C(=O)N[C@@H](CO)C(=O)N[C@@H](CCCNC(=N)N)C(=O)N[C@H](C(=O)N1CCC[C@H]1C(=O)N[C@@H](Cc1ccccc1)C(=O)N1CCC[C@H]1C(=O)O)C(C)C [Elabela-21],log (τ/KA),[1],−1.9 ± 0.1
same,Δlog (τ/KA),[1],−0.5 ± 0.2
same,Bias factor,[1],13.2
same,Log (Bias),[1],1.1 ± 0.3
same,log (τ/KA),[2]; APJ-β-arrestin 2,−2.1 ± 0.1
same,Δlog (τ/KA),"[2]; APJ-β-arrestin 2, relative to Apelin-13",0.3 ± 0.1
same,Bias factor,[2],73.6
same,Log (Bias),[2],1.9 ± 0.2
same,log (τ/KA),APJ–GRK2 interaction,−1.5 ± 0.2
same,Δlog (τ/KA),APJ–GRK2 interaction,0.6 ± 0.3
same,Bias factor,APJ–GRK2 interaction,169.0
same,Log (Bias),APJ–GRK2 interaction,2.2 ± 0.4
same,log (τ/KA),[3],−1.9 ± 0.1
same,Δlog (τ/KA),[3],0.6 ± 0.1
same,Bias factor,[3],146.2
same,Log (Bias),[3],2.2 ± 0.2
same,log (τ/KA),APJ–GRK5 interaction,−1.9 ± 0.3
same,Δlog (τ/KA),APJ–GRK5 interaction,0.5 ± 0.4
same,Bias factor,APJ–GRK5 interaction,124.1
same,Log (Bias),APJ–GRK5 interaction,2.1 ± 0.5

# — paper PMC7970304, “The Effects of Apelin and Elabela Ligands on Apelin Receptor Distinct Signaling Profiles” (Frontiers in Pharmacology, 2021)
